{"source": "paper PMC4326221", "about": "(Science translational medicine, 2014)", "key": {"[1]": {"tested_on": "Mouse lung cancer cells (6#)", "test": "drug treatment of 6# cells, phase-contrast microscopy", "type": "cell-based", "settings": "for effect on cell proliferation / cell death: FTI-277 15 μM, GGTI-298 15 μM, BPH-1222 10 μM"}, "FPPS": {"tested_on": "FPPS", "settings": "cited from earlier work"}, "KRAS tumors": {"tested_on": "KRAS tumors", "test": "zoledronate plus rapamycin in vivo", "settings": "fig. S4D, E"}, "[2]": {"tested_on": "p70 S6 kinase and 4E-BP1 phosphorylation in mouse lung cancer cells (6#)", "test": "mTOR substrate phosphorylation by immunoblotting", "type": "cell-based", "settings": "6# cells, rapamycin 0.1 μM, 48 h"}, "[3]": {"tested_on": "GTP-bound KRAS in mouse lung cancer cells (M3L2)", "test": "KRAS-GTP pull-down with RAF-1 RBD beads", "type": "cell-based", "settings": "48 h"}, "[4]": {"tested_on": "HRAS, KRAS and RAP1A prenylation in U2OS cells expressing Flag-KRAS G12D", "test": "cell fractionation assay of protein prenylation", "type": "cell-based", "settings": "48 h, BPH-1222 10 μM, BPH-714 10 μM, zoledronate 20 μM"}, "[5]": {"tested_on": "CHOP, BiP, LC3 in mouse lung cancer cells (6#)", "test": "ER stress and autophagy markers by immunoblotting", "type": "cell-based"}, "pharmacokinetics test": {"test": "pharmacokinetics test", "type": "in vivo", "settings": "single i.v. injection 5 mg/kg, female SD rats"}, "human GGPPS": {"molecular_target": "T1, human GGPPS (Homo sapiens, UniProt O95749)", "T1 sequence (O95749 1-300)": "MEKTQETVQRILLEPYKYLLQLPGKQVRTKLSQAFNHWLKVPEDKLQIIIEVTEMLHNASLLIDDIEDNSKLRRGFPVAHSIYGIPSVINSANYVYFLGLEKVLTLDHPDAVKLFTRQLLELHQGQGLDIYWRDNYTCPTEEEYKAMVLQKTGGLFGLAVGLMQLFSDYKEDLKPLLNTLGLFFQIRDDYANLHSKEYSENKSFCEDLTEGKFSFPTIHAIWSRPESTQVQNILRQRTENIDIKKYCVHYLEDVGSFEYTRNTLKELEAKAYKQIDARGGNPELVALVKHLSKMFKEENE", "test": "GGPPS enzymatic inhibition assay", "type": "biochemical", "settings": "read-out: GGPPS Ki, in vitro"}}, "note": "Values joined by “and” are separate entries in the source; they are usually repeats but may differ in a detail not shown here. Equal values may be shown once."}
{"smiles": "COC(=O)[C@H](CC(C)C)NC(=O)c1ccc(NC[C@@H](N)CS)cc1-c1cccc2ccccc12", "note": "[GGTI-298]", "values": [{"measurement": "effect on cell proliferation / cell death", "setting": "[1]", "value": "little effect on cell proliferation"}]}
{"smiles": "O=P(O)(O)C(O)(Cc1cccnc1)P(=O)(O)O", "note": "[risedronate]", "values": [{"measurement": "FPPS inhibition", "setting": "FPPS", "value": "inhibit FPPS"}]}
{"smiles": "O=P(O)(O)C(O)(Cn1ccnc1)P(=O)(O)O", "note": "[zoledronate]", "values": [{"measurement": "synergy with rapamycin for killing KRAS tumors", "setting": "KRAS tumors", "value": "synergizes with rapamycin in vivo"}, {"measurement": "FPPS inhibition", "setting": "FPPS", "value": "inhibit FPPS"}]}
{"smiles": "NCCCC(O)(P(=O)(O)O)P(=O)(O)O", "note": "[alendronate]", "values": [{"measurement": "FPPS inhibition", "setting": "FPPS", "value": "inhibit FPPS"}]}
{"smiles": "CC(C)=CCC/C(C)=C/CC/C(C)=C/CC/C(C)=C/CO", "note": "[GGOH, geranylgeraniol]", "values": [{"measurement": "rescue from bisphosphonate-induced cell death", "setting": "[1]; supplementation 10 μM with BPH-1222 10 μM, 48 h", "value": "substantially rescued cells"}]}
{"smiles": "CO[C@H]1C[C@@H]2CC[C@@H](C)[C@@](O)(O2)C(=O)C(=O)N2CCCC[C@H]2C(=O)O[C@H]([C@H](C)C[C@@H]2CC[C@@H](O)[C@H](OC)C2)CC(=O)[C@H](C)/C=C(\\C)[C@@H](O)[C@@H](OC)C(=O)[C@H](C)C[C@H](C)/C=C/C=C/C=C/1C", "note": "[rapamycin]", "values": [{"measurement": "phosphorylation of mTOR substrates (p70 S6 kinase and 4E-BP1)", "setting": "[2]", "value": "potently blocked phosphorylation"}]}
{"smiles": "COC(=O)[C@H](CCSC)NC(=O)c1ccc(NC[C@@H](N)CS)cc1-c1ccccc1", "note": "[FTI-277]", "values": [{"measurement": "effect on cell proliferation / cell death", "setting": "[1]", "value": "little effect on cell proliferation"}]}
{"smiles": "CCCCCCCCn1cc[n+](CC(O)(P(=O)([O-])O)P(=O)(O)O)c1", "note": "(centres unmarked) [BPH-1222]", "values": [{"measurement": "amount of GTP-bound KRAS", "setting": "[3]", "value": "greatly reduced the amount of GTP-bound KRAS"}, {"measurement": "inhibition of protein farnesylation and geranylgeranylation (HRAS degradation, RAP1A dislodgement)", "setting": "[4]", "value": "robustly inhibited protein farnesylation as well as protein geranylgeranylation"}, {"measurement": "ER stress markers CHOP and BiP protein levels", "setting": "[5]; 6# cells, 10 μM, 1, 2, or 3 days", "value": "potently induced"}, {"measurement": "time to autophagy induction (accumulation of PE-conjugated LC3)", "setting": "[5]; tumor cells treated with BPH-1222", "value": "2 to 3", "unit": "days"}, {"measurement": "pharmacokinetic properties", "setting": "pharmacokinetics test", "value": "good pharmacokinetic properties"}, {"measurement": "Ki", "setting": "human GGPPS", "value": "~0.3 µM and 0.3 µM"}]}
